From patent US10851067B2, “Kv7 channel activators compositions and methods of use” (Knopp Biosciences LLC, priority 2018, dated 2020)

Key:
[1] = target: T1, Kv7.2/7.3 (Homo sapiens, UniProt O43525+O43526); assay: Kv7.2/7.3 Thallium Flux Assay; type: cell-based; set-up: host or cells: HEK cells, tetracycline-inducible expression; settings: read-out: Kv7.2/7.3 Activity: EC50 of Kv7.2/Kv7.3 activation
Procedure, shortened: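 Tetracycline-induced (10 ng/mL) hKv7.2/7.3 cell line tested over eight concentrations, 0.014–30 μM, in 0.1% DMSO extracellular solution; FluxOR II thallium-sensitive dye read at Ex 475/Em 530 nm. After 15 sec baseline, thallium/potassium stimulus injected, endpoint at 90 sec; responses normalized to retigabine ([…] max), Hill fit gave EC50 and maximal response.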

[2] = target: T1, Kv7.2/7.3; assay: Kv7.2/7.3 FluxOR Potassium Ion Channel Assay (Invitrogen, F20015); type: cell-based

Structure (SMILES) | EC50 [1] [nM] | EC50 [2] [nM]
CC(C(=O)Nc1nc2c(F)cc(C#N)cc2n1C1(C)CCC1)C(C)(C)C(F)(F)F (single isomer, unassigned) [Example 562, N-(6-cyano-4-fluoro-1-(1-methylcyclobutyl)-1H-benzo[d]imidazol-2-yl)-4,4,4-trifluoro-2,3,3-trimethylbutanamide] | < 1000 | 
CC1(n2c(NC(=O)CC(C)(C)C(F)(F)F)nc3c(F)cc(C#N)cc32)CCC1 [Example 486, N-(6-cyano-4-fluoro-1-(1-methylcyclobutyl)-1H-benzo[d]imidazol-2-yl)-4,4,4-trifluoro-3,3-dimethylbutanamide] | < 1000 | 
CC(C)(C)CC(=O)Nc1nc2ccc(C3(O)CCC3)c(OC(F)(F)F)c2n1C1CCC1 [Example 487, N-(1-cyclobutyl-6-(1-hydroxycyclobutyl)-7-(trifluoromethoxy)-1H-benzo[d]imidazol-2-yl)-3,3-dimethylbutanamide] | < 1000 | 
CC(C)(C)CC(=O)Nc1nc2ccc(C3(O)CCC3)c(C(F)(F)F)c2n1C1CCC1 [Example 490, N-(1-cyclobutyl-6-(1-hydroxycyclobutyl)-7-(trifluoromethyl)-1H-benzo[d]imidazol-2-yl)-3,3-dimethylbutanamide] | < 1000 | 
CC(C)(O)c1ccc2nc(NC(=O)CC3CC(F)(F)C3(F)F)n(C3(C)CCC3)c2c1 (centres unmarked) [Example 491, N-(6-(2-hydroxypropan-2-yl)-1-(1-methylcyclobutyl)-1H-benzo[d]imidazol-2-yl)-2-(2,2,3,3-tetrafluorocyclobutyl)acetamide] | < 1000 | 
CC(C)(C)CC(=O)Nc1nc2c(F)cc(C#N)cc2n1C1(C)CCC1 [Example 495, N-(6-cyano-4-fluoro-1-(1-methylcyclobutyl)-1H-benzo[d]imidazol-2-yl)-3,3-dimethylbutanamide] | < 1000 | 
CC(C)(C)CC(=O)Nc1nc2ccc(C#N)c(OC(F)(F)F)c2n1C1CCC1 [Example 498, N-(6-cyano-1-cyclobutyl-7-(trifluoromethoxy)-1H-benzo[d]imidazol-2-yl)-3,3-dimethylbutanamide] | < 1000 | 
CC(C)(C)CC(=O)Nc1nc2ccc(C(C)(C)O)c(OC(F)(F)F)c2n1C1CCC1 [Example 501, N-(1-cyclobutyl-6-(2-hydroxypropan-2-yl)-7-(trifluoromethoxy)-1H-benzo[d]imidazol-2-yl)-3,3-dimethylbutanamide] | 1000 to 3000 | 
CC(C)(O)c1cc(F)c2nc(NC(=O)C3(CC(F)F)CC3)n(C3CCC3)c2c1 [Example 502, N-(1-cyclobutyl-4-fluoro-6-(2-hydroxypropan-2-yl)-1H-benzo[d]imidazol-2-yl)-1-(2,2-difluoroethyl)cyclopropane-1-carboxamide] | 3000 to 10000 | 
CC(C)(O)c1ccc2nc(NC(=O)Cc3ccc(F)cc3F)n(C3(C)CCC3)c2c1 [Example 505, 2-(2,4-difluorophenyl)-N-(6-(2-hydroxypropan-2-yl)-1-(1-methylcyclobutyl)-1H-benzo[d]imidazol-2-yl)acetamide] | < 1000 | 
CC(C)(C)CC(=O)Nc1nc2ccc(C#N)c(C(F)(F)F)c2n1C1CCC1 [Example 507, N-(6-cyano-1-cyclobutyl-7-(trifluoromethyl)-1H-benzo[d]imidazol-2-yl)-3,3-dimethylbutanamide] | < 1000 | 
COc1cc(C#N)cc2c1nc(NC(=O)C13CCC(C1)C3)n2C(C)(C)C [Example 510, N-(1-(tert-butyl)-6-cyano-4-methoxy-1H-benzo[d]imidazol-2-yl)bicyclo[2.1.1]hexane-1-carboxamide] | 1000 to 3000 | 
CC(C)(O)c1ccc2nc(NC(=O)CC34CC(C3)C4)n(C3(C)CCC3)c2c1 [Example 511, 2-(bicyclo[1.1,1]pentan-1-yl)-N-(6-(2-hydroxypropan-2-yl)-1-(1-methylcyclobutyl)-1H-benzo[d]imidazol-2-yl)acetamide] | < 1000 | 
COc1cc(C#N)cc2c1nc(NC(=O)CC1CC(F)(F)C1(F)F)n2C(C)(C)C (centres unmarked) [Example 514, N-(1-(tert-butyl)-6-cyano-4-methoxy-1H-benzo[d]imidazol-2-yl)-2-(2,2,3,3-tetrafluorocyclobutyl)acetamide] | < 1000 | 
CC(C)(C)CC(=O)Nc1nc2cccc(OC(F)(F)F)c2n1C1CCC1 [Example 516, N-(1-cyclobutyl-7-(trifluoromethoxy)-1H-benzo[d]imidazol-2-yl)-3,3-dimethylbutanamide] | < 1000 | 
CC(C)(C)CC(=O)Nc1nc2c(F)cc(C#N)c(F)c2n1C1(C)CCC1 [Example 517, N-(6-cyano-4,7-difluoro-1-(1-methylcyclobutyl)-1H-benzo[d]imidazol-2-yl)-3,3-dimethylbutanamide] | < 1000 | 
CC(C)(CC(=O)Nc1nc2ccc(C#N)cc2n1C1CCC1)c1ccccn1 [Example 518, N-(6-cyano-1-cyclobutyl-1H-benzo[d]imidazol-2-yl)-3-methyl-3-(pyridin-2-yl)butanamide] | 1000 to 3000 | 
COc1cc(C#N)cc2c1nc(NC(=O)CC1(C(F)(F)F)CC1)n2C(C)(C)C [Example 520, N-(1-(tert-butyl)-6-cyano-4-methoxy-1H-benzo[d]imidazol-2-yl)-2-(1-(trifluoromethyl)cyclopropyl)acetamide] | 3000 to 10000 | 

Structure (SMILES) | EC50 [1] [nM] | EC50 [2] [nM]
[2H]C([2H])([2H])C(CC(=O)Nc1nc2c(F)cc(C#N)cc2n1C1(C)CCC1)(C([2H])([2H])[2H])C([2H])([2H])[2H] [Example 521, N-(6-cyano-4-fluoro-1-(1-methylcyclobutyl)-1H-benzo[d]imidazol-2-yl)-3,3-bis(methyl-d3)butanamide] | < 1000 | 
CC1(n2c(NC(=O)CC3(C(F)(F)F)CC3)nc3cc(F)cc(F)c32)CCC1 [Example 522, N-(5,7-difluoro-1-(1-methylcyclobutyl)-1H-benzo[d]imidazol-2-yl)-2-(1-(trifluoromethyl)cyclopropyl)acetamide] | < 1000 | 
CC(C)(CC(=O)Nc1nc2cc(F)ccc2n1C1(C)CCC1)C(F)F [Example 524, 4,4-difluoro-N-(5-fluoro-1-(1-methylcyclobutyl)-1H-benzo[d]imidazol-2-yl)-3,3-dimethylbutanamide] | < 1000 | 
CC1(n2c(NC(=O)CC3(C(F)(F)F)CC3)nc3cc(F)ccc32)CCC1 [Example 527, N-(5-fluoro-1-(1-methylcyclobutyl)-1H-benzo[d]imidazol-2-yl)-2-(1-(trifluoromethyl)cyclopropyl)acetamide] | < 1000 | 
CC(C)(C)n1c(NC(=O)CC(C)(C)C(F)(F)F)nc2cc(F)cc(F)c21 [Example 530, N-(1-(tert-butyl)-5,7-difluoro-1H-benzo[d]imidazol-2-yl)-4,4,4-trifluoro-3,3-dimethylbutanamide] | < 1000 | 
CC(C)(C)n1c(NC(=O)CC2(C(F)(F)F)CC2)nc2cc(F)cc(F)c21 [Example 531, N-(1-(tert-butyl)-5,7-difluoro-1H-benzo[d]imidazol-2-yl)-2-(1-(trifluoromethyl)cyclopropyl)acetamide] | < 1000 | 
CC(C)(CC(=O)Nc1nc2cc(F)c(F)cc2n1C1(C)CCC1)C(F)F [Example 533, N-(5,6-difluoro-1-(1-methylcyclobutyl)-1H-benzo[d]imidazol-2-yl)-4,4-difluoro-3,3-dimethylbutanamide] | < 1000 | 
CC1(n2c(NC(=O)CC3(C(F)(F)F)CC3)nc3cc(F)c(F)c(F)c32)CCC1 [Example 534, N-(5,6,7-trifluoro-1-(1-methylcyclobutyl)-1H-benzo[d]imidazol-2-yl)-2-(1-(trifluoromethyl)cyclopropyl)acetamide] | < 1000 | 
CC1(n2c(NC(=O)CC3(C(F)(F)F)CC3)nc3cc(F)c(F)cc32)CCC1 [Example 538, N-(5,6-difluoro-1-(1-methylcyclobutyl)-1H-benzo[d]imidazol-2-yl)-2-(1-(trifluoromethyl)cyclopropyl)acetamide] | < 1000 | 
CC(C)(CC(=O)Nc1nc2ccc(F)c(C#N)c2n1C1(C)CCC1)C1CC1 [Example 541, N-(7-cyano-6-fluoro-1-(1-methylcyclobutyl)-1H-benzo[d]imidazol-2-yl)-3-cyclopropyl-3-methylbutanamide] | < 1000 | 
CC(C)(CC(=O)Nc1nc2cc(F)cc(C#N)c2n1C1(C)CCC1)C1CC1 [Example 547, N-(7-cyano-5-fluoro-1-(1-methylcyclobutyl)-1H-benzo[d]imidazol-2-yl)-3-cyclopropyl-3-methylbutanamide] | < 1000 | 
CC(C)(C)CC(=O)Nc1nc2ccc(F)c(Br)c2n1C1(C)CCC1 [Example 550, N-(7-bromo-6-fluoro-1-(1-methylcyclobutyl)-1H-benzo[d]imidazol-2-yl)-3,3-dimethylbutanamide] | < 1000 | 
C=Cc1c(F)ccc2nc(NC(=O)CC(C)(C)C)n(C3CCC3)c12 [Example 552, N-(1-cyclobutyl-6-fluoro-7-vinyl-1H-benzo[d]imidazol-2-yl)-3,3-dimethylbutanamide] | < 1000 | 
COc1cc(C#N)cc2c1nc(NC(=O)CC(C)(C)C(F)(F)F)n2C1(C)CCC1 [Example 554] | < 1000 | 
CC1(n2c(NC(=O)CC(C)(C)C(F)(F)F)nc3ccc(Cl)c(F)c32)CCC1 [Example 555, N-(6-chloro-7-fluoro-1-(1-methylcyclobutyl)-1H-benzo[d]imidazol-2-yl)-4,4,4-trifluoro-3,3-dimethylbutanamide] | < 1000 | 
CC1(n2c(NC(=O)CC3(C(F)(F)F)CC3)nc3c(F)cc(C#N)cc32)CCC1 [Example 561, N-(6-cyano-4-fluoro-1-(1-methylcyclobutyl)-1H-benzo[d]imidazol-2-yl)-2-(1-(trifluoromethyl)cyclopropyl)acetamide] | < 1000 | 
CCOC(=O)Nc1ccc(NCc2ccc(F)cc2)cc1N [ezogabine] |  | 1100
